Source: patent US20240239752A1, “BICYCLIC HETEROAROMATIC INHIBITORS OF KLK5” (BioCryst Pharmaceuticals, Inc., priority 2021, published 2024)
pIC50: −log10 of the molar value.

Biological target: T1, recombinant human KLK5 (Homo sapiens, UniProt Q9Y337)
T1 construct: purchased Novoprotein or R&D Systems C415 or 1108-SE
T1 sequence (Q9Y337 23-293): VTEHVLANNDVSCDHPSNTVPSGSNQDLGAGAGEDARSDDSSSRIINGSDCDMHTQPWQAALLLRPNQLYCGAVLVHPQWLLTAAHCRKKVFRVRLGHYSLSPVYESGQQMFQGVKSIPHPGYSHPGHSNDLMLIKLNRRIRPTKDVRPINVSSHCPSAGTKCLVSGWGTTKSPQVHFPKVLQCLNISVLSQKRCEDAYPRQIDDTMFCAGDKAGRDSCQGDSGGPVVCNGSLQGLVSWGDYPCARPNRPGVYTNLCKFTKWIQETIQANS
Experiment: Kallikrein (KLK) 5 enzymatic assay (Boc-VPR-AMC fluorogenic substrate)
Format: biochemical
Details: recombinant human KLK5 0.1 μg/well, Boc-VPR-AMC 100 μM, pH 7.5, room temperature, 1% DMSO; tested a minimum of three times
Description: Kallikrein-5 (KLK5) is a member of the serine protease family of proteolytic enzymes, confirmed to have trypsin-like activity (Michael I P, et al. Biochemical and enzymatic characterization of human kallikrein 5 (hK5), a novel serine protease potentially involved in cancer progression (J. Biol. Chem. 2005 Apr. 15; 280 (15): 14628-35). Boc-VPR-AMC is a fluorogenic peptide substrate composed of the short peptide chain, Valine-Proline-Arginine (VPR) and the fluorophore, 7-amino-4-methylcoumarin (AMC). KLK5 is able to cleave the fluorogenic peptide substrate Boc-VPR-AMC, releasing the AMC fluorophore, which causes a fluorescent emission in proportion with the enzymatic activity of KLK5. The KLK5 enzymatic activity is monitored by measuring fluorescent emission at wavelengths of 380 nm (excitation) and 460 nm (emission).
The IC50 value of compounds against KLK5 (i.e., the concentration of the compound that inhibits 50% of the enzymatic activity) was calculated according to the procedure reported by R&D systems (Recombinant human KLK5, Catalog Number: 1108-SE), with the exception the pH of the assay was modified from 8.0 to 7.5. Specifically, recombinant human KLK5 (Novoprotein Catalog #C415 or R&D systems Catalog #1108-SE) and fluorogenic peptide Boc-VPR-AMC substrate (R&D Catalog #ES011) were each separately diluted in assay buffer (0.1 M NaH2PO4 buffer, pH 7.5). The compounds of the disclosure were dissolved in DMSO at a concentration of 10 mM. A portion of this stock solution was added to the recombinant human KLK5 solution to provide a desired concentration of the compounds and the mixture was incubated at room temperature. The reaction was initiated by the addition of the fluorogenic peptide substrate at room temperature. The final concentration of recombinant human KLK5 was 0.1 μg/well and the final concentration of the fluorogenic substrate was 100 μM (final volume of 100 μL, 1% DMSO). The assays were performed in 96 well F16 Black Maxisorp Plate (Nunc Catalog #475515). Controls included assay buffer alone and enzyme solutions to which DMSO was added. The reaction rates were measured spectrophotometrically by excitation at 380 nm and emission at 460 nm on a Biotek Synergy H1 plate reader.
The reaction rate for enzyme alone was compared to the reaction rate of enzyme in the presence of compound and the percent inhibition was calculated as shown below:
Percent Inhibition=[Rate with inhibitor/Rate without inhibitor)]×100
An IC50 indicates a compound concentration that inhibits 50% of the enzymatic activity. Compounds were tested a minimum of three times.

SMILES	pIC50
N=C(N)c1cccc(-c2cc(OCc3ccccn3)c3occ(COc4ccccc4CC(=O)O)c3c2)c1 [Compound 227i, 2-(2-((5-(3-carbamimidoylphenyl)-7-(pyridin-2-ylmethoxy)benzofuran-3-yl)methoxy)phenyl)acetic acid]	> 6.00
Nc1nccc2c(-c3ccc4c(c3)C(Oc3ccccc3CC(=O)O)c3ccccc3-4)cccc12 (centres unmarked) [Compound 210b, 2-(2-((2-(1-aminoisoquinolin-5-yl)-9H-fluoren-9-yl)oxy)phenyl)acetic acid]	> 6.00
N=C(N)c1cccc(-c2cc3c(COc4ccccc4C(O)C(=O)O)cccc3o2)c1 (centres unmarked) [Compound 268d, 2-(2-((2-(3-carbamimidoylphenyl)benzofuran-4-yl)methoxy)phenyl)-2-hydroxyacetic acid]	5.00 to 6.00
Cc1ccc(CC(=O)O)c(OCc2nn(C(C)C)c3ccc(-c4ccc5ccnc(N)c5c4)cc23)c1 [Compound 62c, 2-(2-((5-(1-aminoisoquinolin-7-yl)-1-isopropyl-1H-indazol-3-yl)methoxy)-4-methylphenyl)acetic acid]	> 6.00
CCC(=O)N1CCC2(CC1)CC(Oc1ccccc1CC(=O)O)c1cc(-c3cccc4c(N)nccc34)ccc12 (centres unmarked) [Compound 385c, 2-(2-((5-(1-aminoisoquinolin-5-yl)-1′-propionyl-2,3-dihydrospiro[indene-1,4′-piperidin]-3-yl)oxy)phenyl)acetic acid]	> 6.00
COCCN1CC(Cn2nc(COc3ccccc3CC(=O)O)c3cc(-c4ccc5ccnc(N)c5c4)ccc32)C1 [Compound 306c, 2-(2-((5-(1-aminoisoquinolin-7-yl)-1-((1-(2-methoxyethyl)azetidin-3-yl)methyl)-1H-indazol-3-yl)methoxy)phenyl)acetic acid]	> 6.00
CC[C@@H](C)n1nc(COc2ccccc2CC(=O)O)c2cc(-c3ccc4ccnc(N)c4c3)ccc21 [Compound 190e, (R)-2-(2-((5-(1-aminoisoquinolin-7-yl)-1-(sec-butyl)-1H-indazol-3-yl)methoxy)phenyl)acetic acid]	> 6.00
CC(C)n1nc(COc2ccccc2CC(=O)O)c2cc(-c3cnc4[nH]nc(N)c4c3)ccc21 [Compound 68c, 2-(2-((5-(3-amino-1H-pyrazolo[3,4-b]pyridin-5-yl)-1-isopropyl-1H-indazol-3-yl)methoxy)phenyl)acetic acid]	< 5.00
COc1c(CN)cccc1-c1cc2c(COc3ccccc3CC(=O)O)cccc2o1 [Compound 300d, 2-(2-((2-(3-(aminomethyl)-2-methoxyphenyl)benzofuran-4-yl)methoxy)phenyl)acetic acid]	< 5.00
COc1cc(-c2cccc3c(N)nccc23)cc2c(COc3ccccc3CC(=O)O)coc12 [Compound 235b, 2-(2-((5-(1-aminoisoquinolin-5-yl)-7-methoxybenzofuran-3-yl)methoxy)phenyl)acetic acid]	5.00 to 6.00
CCC(=O)N1CC(n2nc3ccc(-c4ccc5ccnc(N)c5c4)cc3c2COc2ccccc2CC(=O)O)C1 [Compound 128c, 2-(2-((5-(1-aminoisoquinolin-7-yl)-2-(1-propionylazetidin-3-yl)-2H-indazol-3-yl)methoxy)phenyl)acetic acid]	5.00 to 6.00
CCC(=O)N1CCC2(CC1)CC(Oc1cccc(C)c1CC(=O)O)c1cc(-c3cccc4c(N)nccc34)ccc12 (centres unmarked) [Compound 387c, 2-(2-((5-(1-aminoisoquinolin-5-yl)-1′-propionyl-2,3-dihydrospiro[indene-1,4′-piperidin]-3-yl)oxy)-6-methylphenyl)acetic acid]	> 6.00
Nc1nccc2ccc(-c3ccc4c(c3)C(Oc3ccccc3CC(=O)O)CC43CCCCC3)cc12 (centres unmarked) [Compound 391b, 2-(2-((5′-(1-aminoisoquinolin-7-yl)-2′,3′-dihydrospiro[cyclohexane-1,1′-inden]-3′-yl)oxy)phenyl)acetic acid]	> 6.00
COCCN1CC(n2nc3ccc(-c4cccc5c(N)nccc45)cc3c2COc2ccccc2CC(=O)O)C1 [Compound 120c, 2-(2-((5-(1-aminoisoquinolin-5-yl)-2-(1-(2-methoxyethyl)azetidin-3-yl)-2H-indazol-3-yl)methoxy)phenyl)acetic acid]	> 6.00

Second part, the molecule after the results:

pIC50	SMILES
> 6.00	Cc1ccc(CC(=O)O)c(OCc2nn(C3CCC3)c3ccc(-c4cccc5c(N)nccc45)cc23)c1 [Compound 163c, 2-(2-((5-(1-aminoisoquinolin-5-yl)-1-cyclobutyl-1H-indazol-3-yl)methoxy)-4-methylphenyl)acetic acid]
> 6.00	Nc1nccc2c(-c3ccc4c(c3)c(COc3cccc(OC(F)(F)F)c3CC(=O)O)nn4C3CCOC3)cccc12 (centres unmarked) [Compound 289b, 2-(2-((5-(1-aminoisoquinolin-5-yl)-1-(tetrahydrofuran-3-yl)-1H-indazol-3-yl)methoxy)-6-(trifluoromethoxy)phenyl)acetic acid]
5.00 to 6.00	Nc1nccc2c(-c3ccc4nn(C5CC(N)C5)c(COc5ccccc5CC(=O)O)c4c3)cccc12 (centres unmarked) [Compound 136b, 2-(2-((2-(3-aminocyclobutyl)-5-(1-aminoisoquinolin-5-yl)-2H-indazol-3-yl)methoxy)phenyl)acetic acid]
> 6.00	Nc1nccc2c(-c3ccc4c(c3)c(COc3ccccc3CC(=O)O)nn4[C@H]3CCOC3)cccc12 [Compound 243h, (S)-2-(2-((5-(1-aminoisoquinolin-5-yl)-1-(tetrahydrofuran-3-yl)-1H-indazol-3-yl)methoxy)phenyl)acetic acid]
5.00 to 6.00	N#Cc1cccc(OCc2nn(C3CCOC3)c3ccc(-c4ccc5ccnc(N)c5c4)cc23)c1CC(=O)O (centres unmarked) [Compound 292d, 2-(2-((5-(1-aminoisoquinolin-7-yl)-1-(tetrahydrofuran-3-yl)-1H-indazol-3-yl)methoxy)-6-cyanophenyl)acetic acid]
5.00 to 6.00	Cc1cccc(CC(=O)O)c1OCc1nn(C2CCC2)c2ccc(-c3cccc4c(N)nccc34)cc12 [Compound 160b, 2-(2-((5-(1-aminoisoquinolin-5-yl)-1-cyclobutyl-1H-indazol-3-yl)methoxy)-3-methylphenyl)acetic acid]
5.00 to 6.00	Nc1nccc2c(-c3ccc4nn(C5CN(CCO)C5)c(COc5ccccc5CC(=O)O)c4c3)cccc12 [Compound 123b, 2-(2-((5-(1-aminoisoquinolin-5-yl)-2-(1-(2-hydroxyethyl)azetidin-3-yl)-2H-indazol-3-yl)methoxy)phenyl)acetic acid]
> 6.00	N#Cc1cc(-c2cccc3c(N)nccc23)cc2c(COc3ccccc3CC(=O)O)nn(C3CCCCO3)c12 (centres unmarked) [Compound 108c, 2-(2-((5-(1-aminoisoquinolin-5-yl)-7-cyano-1-(tetrahydro-2H-pyran-2-yl)-1H-indazol-3-yl)methoxy)phenyl)acetic acid]
> 6.00	Nc1nccc2c(-c3ccc4c(c3)c(COc3ccccc3CC(=O)O)nn4CC3CC3)cccc12 [Compound 251c, 2-(2-((5-(1-aminoisoquinolin-5-yl)-1-(cyclopropylmethyl)-1H-indazol-3-yl)methoxy)phenyl)acetic acid]
> 6.00	Nc1nccc2ccc(-c3ccc4c(c3)c(COc3cccc(C5CC5)c3CC(=O)O)nn4C3CCOC3)cc12 (centres unmarked) [Compound 290d, 2-(2-((5-(1-aminoisoquinolin-7-yl)-1-(tetrahydrofuran-3-yl)-1H-indazol-3-yl)methoxy)-6-cyclopropylphenyl)acetic acid]
> 6.00	Nc1nccc2c(-c3ccc4c(c3)c(COc3ccc(F)cc3CC(=O)O)nn4C3CCC3)cccc12 [Compound 167b, 2-(2-((5-(1-aminoisoquinolin-5-yl)-1-cyclobutyl-1H-indazol-3-yl)methoxy)-5-fluorophenyl)acetic acid]
5.00 to 6.00	NCc1cc(-c2cccc3c(N)nccc23)cc2c(COc3ccccc3CC(=O)O)nn(C3CCCCO3)c12 (centres unmarked) [Compound 287a, 2-(2-((5-(1-aminoisoquinolin-5-yl)-7-(aminomethyl)-1-(tetrahydro-2H-pyran-2-yl)-1H-indazol-3-yl)methoxy)phenyl)acetic acid]
